These results are taken from ChEMBL document CHEMBL1128717, “2,4-Diaminopyrido[3,2-d]pyrimidine inhibitors of dihydrofolate reductase from Pneumocystis carinii and Toxoplasma gondii” (J Med Chem, 1995).

Each structure is given as a SMILES string.

For test [1], the target named is T1, Bifunctional dihydrofolate reductase-thymidylate synthase (Toxoplasma gondii, UniProt Q07422).
T1 sequence (Q07422 whole entry): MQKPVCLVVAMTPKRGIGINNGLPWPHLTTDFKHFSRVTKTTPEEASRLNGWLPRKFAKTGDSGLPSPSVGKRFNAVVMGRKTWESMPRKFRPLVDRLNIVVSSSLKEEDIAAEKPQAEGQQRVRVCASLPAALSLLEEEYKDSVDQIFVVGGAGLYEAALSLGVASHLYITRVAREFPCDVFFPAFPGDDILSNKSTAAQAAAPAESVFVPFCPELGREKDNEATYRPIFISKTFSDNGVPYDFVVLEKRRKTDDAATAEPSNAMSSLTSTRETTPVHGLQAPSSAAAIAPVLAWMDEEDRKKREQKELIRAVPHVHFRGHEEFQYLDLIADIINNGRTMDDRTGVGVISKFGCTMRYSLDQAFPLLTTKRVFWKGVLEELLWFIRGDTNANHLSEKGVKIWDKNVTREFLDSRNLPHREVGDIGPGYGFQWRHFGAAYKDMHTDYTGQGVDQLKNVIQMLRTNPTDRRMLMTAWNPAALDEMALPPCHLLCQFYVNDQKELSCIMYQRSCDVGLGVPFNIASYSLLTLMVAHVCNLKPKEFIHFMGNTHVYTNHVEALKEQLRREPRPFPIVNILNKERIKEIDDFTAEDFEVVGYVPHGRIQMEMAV
Kind of test: Concentration inhibiting Toxoplasma gondii dihydrofolate reductase.

The target of test [2] is T2, Dihydrofolate reductase (Pneumocystis carinii, UniProt P16184).
T2 sequence (P16184 whole entry): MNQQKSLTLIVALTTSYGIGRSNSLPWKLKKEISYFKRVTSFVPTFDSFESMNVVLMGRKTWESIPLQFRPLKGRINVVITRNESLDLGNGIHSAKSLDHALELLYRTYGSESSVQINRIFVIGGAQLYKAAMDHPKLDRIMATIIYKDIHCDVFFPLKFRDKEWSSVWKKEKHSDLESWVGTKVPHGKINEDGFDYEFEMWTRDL
Description: Concentration inhibiting Pneumocystis carinii dihydrofolate reductase

The target in test [3] is T3, Dihydrofolate reductase (Rattus norvegicus, UniProt Q920D2).
T3 sequence (Q920D2 whole entry): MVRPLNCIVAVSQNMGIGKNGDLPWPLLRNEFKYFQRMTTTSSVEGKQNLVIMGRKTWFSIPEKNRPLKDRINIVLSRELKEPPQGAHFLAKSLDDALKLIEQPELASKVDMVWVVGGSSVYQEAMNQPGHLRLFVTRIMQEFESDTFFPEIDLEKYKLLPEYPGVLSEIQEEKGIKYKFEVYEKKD
Description: Concentration inhibiting rat liver dihydrofolate reductase.

Usually IC50 stands for the concentration that inhibits the measured activity by half. Higher therefore signals a need for much substance.

Consider `CN(Cc1ccc2nc(N)nc(N)c2n1)c1ccc(Cl)c(Cl)c1`, for which the IC50 came out at 98 nM in test [1], 22 nM on Dihydrofolate reductase [2] and 32 nM at Dihydrofolate reductase [3].
Taken in the same sequence, the figures for `CN(Cc1ccc2nc(N)nc(N)c2n1)c1ccc(Cl)cc1` were 15 nM, 62 nM and 22 nM.
As to `CN(Cc1ccc2nc(N)nc(N)c2n1)c1cccc(Cl)c1`, the IC50 in test [1] stood at 20 nM; against Dihydrofolate reductase [2], 2100 nM; against Dihydrofolate reductase [3] it was 67 nM.
Turning to `COc1cc(NCc2ccc3nc(N)nc(N)c3n2)cc(OC)c1OC`, the figures for the IC50 (in test [1]; against Dihydrofolate reductase [2]) were 82 nM and 2600 nM, respectively.
For the compound `COc1cc(N(C)Cc2ccc3nc(N)nc(N)c3n2)cc(OC)c1OC`, the IC50 was 4.7 nM in test [1], 130 nM against Dihydrofolate reductase [2] and 26 nM on Dihydrofolate reductase [3].
Taken in the same sequence, the figures for `COc1ccc(OC)c(NCc2ccc3nc(N)nc(N)c3n2)c1` were 100 nM, 1400 nM and 430 nM.
